In patent US20170275330A1, “POLYMORPHIC FORMS OF AN OXYSTEROL AND METHODS OF MAKING THEM” (Warsaw Orthopedic, Inc., priority 2016, published 2017):
Values after ≈ are worked out from the molar mass of the structure shown.

Legend:
[1] = Solubility of OXY133 Form B in organic solvents; details: ambient temperature of about 20° C.
[2] = physchem; details: acetone, organic solvent or mixture, thermodynamic from solid
[3] = for stability in the acetone/water solvent system: acetone/water slurry
[4] = X-ray powder diffraction (XRPD) identification of the crystal form; assay type: physicochemical; details: OXY133 sample, method/solvent system
From the text: The many crystalline forms obtained by subjecting a slurry of OXY133 to different conditions of re-slurrying, recrystallizing from different solvent systems at different temperatures may be identified by many analytical methods, for example, XRPD, HPLC-CAD, DSC-TGA and others known in the art. In certain embodiments, the OXY133 polymorphs may be characterized, at least in part, by X-ray Powder Diffraction (XRPD). In particular, crystalline solids produce a distinctive diffraction pattern of peaks, represented in what is referred to as a diffractogram. The peak assignments for a given crystalline material, for example, degree 2θ values, may vary slightly, depending on the instrumentation used to obtain the diffractogram and certain other factors, for example, sample preparation. Nevertheless, these variations should not be more than +/−0.2 degrees 2θ and the relative spacing between the peaks in the diffractogram will always be the same, regardless of the instrumentation used or the method of sample preparation, and the like.
The equipment utilized to collect the XRPD patterns depicted in FIGS. 2A-13B was a Bruker D8 Advance diffractometer using Cu radiation (40 kV, 25 mA) with a divergence slit of 0.3° (0.6 mm), wherein variable slits must be operated in fixed mode. The axial Soller slits, primary and secondary were each set at 2.5°. The anti-scatter slit was set at 0.3° (0.6 mm). The secondary monochromator anti-scatter slit was set at 1 mm and the detector slit at 0.1 mm. If a secondary monochromator is not used, then a suitable […] must be used, namely a Ni filter for Cu radiation. The linear detector LYNXEYE was set at 30 detector opening with the angle scanned from 2 to 45° 2Θ.

[5] = Karl-Fisher (KF) water determination of isolated solid; assay type: physicochemical; details: for KF (water content determined by Karl Fischer water determination method): OXY133 sample, method/solvent system, processing point, temperature and time as in the table row; for KF (Wt %) water content of isolated solid: solid isolated from acetone/water slurry at 0, 10 or 25° C.
From the text: Further, Table 8 below is a list of OXY133 polymorphs Forms A, B, C, D, E, F, G, H and I identified by a high performance liquid chromatography (HPLC) followed by charged aerosol detector (CAD) method. Table 4 also lists the starting products, the solvent system including solvent and anti-solvent, the temperature at which a polymorph was formed, the water content of the polymorph as determined by the Karl-Fisher (KF) method of water determination, and where available the yield and purity of the resulting polymorph.

[6] = DSC/TGA (differential scanning calorimetry and thermo-gravimetric analysis); assay type: physicochemical; details: isolated solid of Example 6
Description: Differential scanning calorimetry (DSC) and thermo-gravimetric analysis (TGA) were also collected for some of the OXY133 polymorphs. The equipment utilized to collect the DSC/TGA data was a Mettler Toledo DSC 2 equipped with an aluminum 40 μL crimped pan with a pin hole and the ramp rate was 10° C./min. DSC/TGA thermograms identifying several OXY133 polymorphs are illustrated in FIGS. 20-25.

[7] = Stability of the crystal form on drying in a vacuum oven; assay type: physicochemical; details: drying at temperatures above about 20° C. to about 30° C.
Description: 2.0 g anhydrous OXY133 was added to 10 mL isopropanol in a 100 mL polyblock reactor. The mixture was heated to 30° C. and then stirred at 30° C. for 45 minutes until the solids were dissolved completely. Acceptable heating temperatures ranged from 25° C. to 35° C. A polish filtration step can be added after dissolving the anhydrous OXY133. The mixture of anhydrous OXY133 and isopropanol was then cooled to 5° C. 20 mL of water was then added to the cooled mixture over 120 minutes at 5° C., resulting in the formation of a precipitate approximately one third of the way through the addition of water. The water addition can also be done in temperature ranges from about 0° C. to about 20° C. with no significant effect on the crystal structure. The resulting mixture of OXY133, isopropanol and water was then stirred at 5° C. for 18 hours. However, it is recommended that the resulting mixture could be mixed for at least 2 hours at 5° C. after the water addition was complete to ensure that all solids were precipitated from the solution. A white solid was collected by rapidly filtering the mixture and then washing the solid with 2.0 mL of an isopropanol:water mixture in a ratio of 1:2 v/v. The filtered and washed solids were then dried in a vacuum oven at 20′C. Acceptable temperatures for drying can range from about 20° C. to about 30′C.

[8] = Table 8, processing point (slurry/solid/after drying), temperature and time as in the table row
[9] = Table 9, processing point, temperature

Row | Compound | Crystal Form (XRPD) [4, 8] | Crystal Form (XRPD) [4, 9] | KF (water content determined by Karl Fischer water determination method) [5] | KF (Wt %) water content of isolated solid [5] | further results
1 | CCCCCC[C@](C)(O)[C@H]1CC[C@H]2[C@@H]3C[C@H](O)[C@H]4C[C@@H](O)CC[C@]4(C)[C@H]3CC[C@@]21C [Form B] | – | – | – | – | solubility in isopropanol (IPA) ([1]; isopropanol): good; solubility in tetrahydrofuran ([1]; tetrahydrofuran): good; solubility ([2]; 20 °C): ~10 mg/mL (≈ 23.8 mM); solubility ([2]; 56 °C): ~80 mg/mL (≈ 190 mM)
2 | CCCCCC[C@](C)(O)[C@H]1CC[C@H]2[C@@H]3C[C@H](O)[C@H]4C[C@@H](O)CC[C@]4(C)[C@H]3CC[C@@]21C [Form C] | – | – | – | – | stability in the acetone/water solvent system [3]: fairly stable; conversion from Form C to Form A or Form B ([3]; slurry stirred at about 20° C. in acetone/water): no conversion
3 | CCCCCC[C@](C)(O)[C@H]1CC[C@H]2[C@@H]3C[C@H](O)[C@H]4C[C@@H](O)CC[C@]4(C)[C@H]3CC[C@@]21C [Form 2891-10-3] | Form A | Form A | 4.02% | 4.02 Wt % | –
4 | CCCCCC[C@](C)(O)[C@H]1CC[C@H]2[C@@H]3C[C@H](O)[C@H]4C[C@@H](O)CC[C@]4(C)[C@H]3CC[C@@]21C [Form F] | – | – | – | – | stability in the acetone/water solvent system [3]: somewhat stable; conversion to any other polymorph forms ([3]; acetone/water system, stirred at about 20° C. or about 5° C.): would not convert
5 | CCCCCC[C@](C)(O)[C@H]1CC[C@H]2[C@@H]3C[C@H](O)[C@H]4C[C@@H](O)CC[C@]4(C)[C@H]3CC[C@@]21C.O [OXY133 Monohydrate, (3S,5S,6S,8R,9S,10R,13S,14S,17S)-17-((S)-2-hydroxyoctan-2-yl)-10,13-dimethylhexadecahydro-1H-cyclopenta[a]phenanthrene-3,6-diol, monohydrate] | – | – | – | – | DSC/TGA [6]: 4.76%; KF water content ([5]; isolated solid of Example 6 (IPA/water 1:2, 5° C., dried at 20° C.)): 4.07%; crystal form stability on drying [7]: slow conversion
6 | CCCCCC[C@](C)(O)[C@H]1CC[C@H]2[C@@H]3C[C@H](O)[C@H]4C[C@@H](O)CC[C@]4(C)[C@H]3CC[C@@]21C [Form 2891-9-3] | Form A | Form A | 3.83% | 3.83 Wt % | –
7 | CCCCCC[C@](C)(O)[C@H]1CC[C@H]2[C@@H]3C[C@H](O)[C@H]4C[C@@H](O)CC[C@]4(C)[C@H]3CC[C@@]21C [Form 2891-8-3] | Form A | Form A | 3.25% | 3.25 Wt % | –
